Reference: doi:10.1101/2025.03.14.643303, “A genome-scale drug discovery pipeline uncovers new therapeutic targets and a unique p97 allosteric binding site in Schistosoma mansoni” (bioRxiv, 2025)
Like-named read-outs stand apart in the source and are kept apart here.

What was measured:
adult S. mansoni worms = assay: Treatment of adult S. mansoni worms in culture with inhibitors (attachment to tissue culture substrate, morphology; single 10 μM and dose-response EC50); assay type: cell-based, Schistosoma mansoni; conditions: for EC50: Schistosoma mansoni; for effect on adult worms: benzoxazole propiolamide series, treated 72 hours, monitored until D5
Protocol: Adult S. mansoni (NMRI strain) (6–7 weeks post-infection) worms were harvested from infected female Swiss Webster mice by hepatic portal vein perfusion using 37°C DMEM (Mediatech, Manassas, VA), 8% Horse Serum, and heparin.
Roughly 5 adult worm pairs were placed in 3mL Basch medium in a 12-well culture vessel, and incubated at 37°C, 5% CO2 for the length of the experiment. Compound was administered at D0, D1, and D2, media and drug refreshed every 24 hr. Worms were then allowed to remain in culture until D5, where a final assessment of worm attachment to tissue culture substate was made by light microscopy. Observations on movement and morphology were also recorded. A negative control (0.1% DMSO) and positive control (PZQ; 10 μM in 0.1% DMSO) were included in each experiment, and each experiment was repeated in triplicate for validation. For compounds that caused complete detachment in replicate experiments, the treatment was expanded to three concentrations (10 μM, 5 μM, and 1 μM) following the same treatment schedule and controls as detailed above. […] Each titration experiment was performed in triplicate according to the treatment regimen described above, using DMSO and PZQ as appropriate controls. Morphologies and motility were assessed by light microscopy, and dose-response curves were calculated using the primary readout of parasite attachment to tissue culture substrate in GraphPad Prism. […]
[…] Values were calculated using Prism.

[1] = molecular target: S. mansoni p97 (Smp_018240) (Schistosoma mansoni, UniProt G4M0P7); assay: biochemical; conditions: for IC50: Sm p97, 100 μM – 1 nM, read-out: S. mansoni IC50; for IC50 / Fold Selectivity: Suppl. Fig. 9C; for activity on the enzyme: schistosome p97; for Fold Selectivity: H. sapiens vs S. mansoni p97 IC50
Protocol: E. coli BL21 (DE3) containing the desired plasmid were grown in LB medium containing […] kanamycin while shaking at 37 °C to an OD600 of 0.6–0.8. The temperature was reduced to 18°C and 0.8 mM isopropyl-beta-D-thiogalactopyranoside (IPTG) was added. The bacterial culture was harvested 16hr later by centrifugation. The resulting pellet was suspended in 60 mL lysis buffer/2L bacterial culture [20 mM Tris (pH 7.4), 300 mM NaCl, 5 mM MgCl2, 20 mM imidazole, 1% Triton X-100, 1 mg/mL lysozyme, 10% glycerol, 3 mM β-mercaptoethanol, 0.2 mM PMSF, and protease inhibitor tablet (Roche)]. […] The lysate was centrifuged at 40,000 × rpm for 35 min at 4°C. The resulting supernatant was incubated with Ni-NTA beads equilibrated to lysis buffer for 1 hr at 4°C before being loaded onto a gravity column. The bead bed was washed with wash buffer [20 mM Tris (pH 7.4), 500 mM NaCl, 5 mM MgCl2, 40 mM imidazole, 0.05% Triton X-100, 10% glycerol, 3 mM β-mercaptoethanol, 0.2 mM PMSF, 0.001 mg/mL Aprotinin, and 0.002 mg/mL Leupeptin], then eluted in the same buffer with 250 mM imidazole in wash buffer. Fractions containing p97 were concentrated using Pierce Protein Concentrators (100k MWCO) and loaded onto a gel-filtration column (Superdex 200PG) and eluted using SEC buffer [20 mM Tris (pH 7.4), 180 mM NaCl, 5 mM MgCl2, and 10% glycerol] at 0.5 mL/min flow rate on a BioRad NGC Chromatography System. Fractions corresponding to an apparent molecular weight of 500 – 600 kDa were collected and analyzed by 4–20% SDS/PAGE to evaluate purity. Concentration was determined using a BSA standard. Fractions containing purified protein were aliquoted, snap frozen in liquid nitrogen, and stored at −80 °C until use.
For manual ATP consumption assays, 1 μM p97 was incubated with 1% DMSO or inhibitor (1% DMSO final) in assay buffer [50 mM Tris (pH 7.5), 20 mM MgCl2, 1 mM EDTA, 0.5 mM tris(2-carboxyethyl)phosphine (TCEP)] for 5 minutes prior to the addition of 20 μM ATP in a 384-well plate for a total reaction volume of 10 μL, and a final concentration of 500nM enzyme and 10 μM ATP. The reaction was allowed to proceed for 50 minutes at room temperature before adding equivalent volume of Kinase-Glo Plus reagent (Promega), and a further incubation of 10 minutes in the dark.
IC50 values were calculated using GraphPad Prism.

H. sapiens p97 (P55072) = molecular target: T1, H. sapiens p97 (P55072) (Homo sapiens, UniProt P55072); assay: p97 ATPase activity, ATP consumption assay (Kinase-Glo), IC50 / counter screen; assay type: biochemical; conditions: Hs p97; 100 μM – 1 nM; Suppl. Fig. 9C
T1 construct: 6xHis (C); made in house; host or cells: E. coli BL21 (DE3)

HepG2 cells = assay: HepG2 cytotoxicity assay (Cell Titer Glo 2.0); assay type: cell-based, human; conditions: Homo sapiens
Protocol: HepG2 cells (ATCC) were plated at 2500 cells/well in 50 μL/well, dispersing cells using a 25g needle to break up clumps prior to plating. Plates were incubated for 24hr at 37C, 5% CO2. Following 24hr, 50 μL media containing 0.6% DMSO was added to a set of wells on one plate. The plate and Cell Titer Glo 2.0 reagent were brought to RT. A T=0 read was taken by adding 40 μL reagent/well, rocking the plate at 100 rpm for 2 min, then reading luminescence ~10 min later. […] 50 μL 2x concentrated compound was added to wells containing cells in 50 μL 24 hr after plating. Concentrations were tested in triplicate at following values: 30, 10, 3.3, 1.1, 0.37, 0.12, and 0.04 μM. Plates were incubated for 72 hr at 37C, 5% CO2. Following equilibration to room temperature, 40 μL undiluted reagent was added to each well, the plate rocked at 100 rpm for 2 min and then read for luminescent signal ~10 min later.
Values are plotted in excel and the 50% point determined by interpolation. Values were revisualized in Prism.

[2] = adult parasites, fraction of worms attached, 72 hours of drug treatment, in culture until D5, 50 μM - 10 nM, Suppl. Fig. 9C, read-out: S. mansoni EC50
[3] = adult worms, MEK1 inhibitor, read-out: EC50

Chain of S. mansoni p97 (Smp_018240) (G4M0P7 entry or part of it): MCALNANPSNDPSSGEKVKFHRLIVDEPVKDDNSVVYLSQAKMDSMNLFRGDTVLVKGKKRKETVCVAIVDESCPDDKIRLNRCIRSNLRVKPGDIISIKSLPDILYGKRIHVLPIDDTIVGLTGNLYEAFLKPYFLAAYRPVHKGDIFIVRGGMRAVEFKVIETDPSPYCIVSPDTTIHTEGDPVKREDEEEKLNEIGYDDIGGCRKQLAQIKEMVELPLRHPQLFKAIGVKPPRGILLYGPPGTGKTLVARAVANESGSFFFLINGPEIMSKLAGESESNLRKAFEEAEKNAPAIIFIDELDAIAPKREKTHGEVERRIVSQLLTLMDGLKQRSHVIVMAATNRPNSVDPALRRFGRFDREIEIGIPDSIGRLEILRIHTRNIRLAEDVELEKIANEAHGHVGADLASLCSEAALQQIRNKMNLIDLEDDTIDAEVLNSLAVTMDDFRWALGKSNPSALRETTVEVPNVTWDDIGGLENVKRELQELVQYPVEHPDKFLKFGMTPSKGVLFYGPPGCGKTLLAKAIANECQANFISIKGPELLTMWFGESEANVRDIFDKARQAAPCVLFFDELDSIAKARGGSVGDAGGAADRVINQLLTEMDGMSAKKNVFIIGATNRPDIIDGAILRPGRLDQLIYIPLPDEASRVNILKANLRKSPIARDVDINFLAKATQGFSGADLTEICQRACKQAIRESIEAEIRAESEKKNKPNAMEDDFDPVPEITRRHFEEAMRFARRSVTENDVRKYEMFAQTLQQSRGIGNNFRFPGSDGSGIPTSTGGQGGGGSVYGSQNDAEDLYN
T1 sequence (P55072 whole entry): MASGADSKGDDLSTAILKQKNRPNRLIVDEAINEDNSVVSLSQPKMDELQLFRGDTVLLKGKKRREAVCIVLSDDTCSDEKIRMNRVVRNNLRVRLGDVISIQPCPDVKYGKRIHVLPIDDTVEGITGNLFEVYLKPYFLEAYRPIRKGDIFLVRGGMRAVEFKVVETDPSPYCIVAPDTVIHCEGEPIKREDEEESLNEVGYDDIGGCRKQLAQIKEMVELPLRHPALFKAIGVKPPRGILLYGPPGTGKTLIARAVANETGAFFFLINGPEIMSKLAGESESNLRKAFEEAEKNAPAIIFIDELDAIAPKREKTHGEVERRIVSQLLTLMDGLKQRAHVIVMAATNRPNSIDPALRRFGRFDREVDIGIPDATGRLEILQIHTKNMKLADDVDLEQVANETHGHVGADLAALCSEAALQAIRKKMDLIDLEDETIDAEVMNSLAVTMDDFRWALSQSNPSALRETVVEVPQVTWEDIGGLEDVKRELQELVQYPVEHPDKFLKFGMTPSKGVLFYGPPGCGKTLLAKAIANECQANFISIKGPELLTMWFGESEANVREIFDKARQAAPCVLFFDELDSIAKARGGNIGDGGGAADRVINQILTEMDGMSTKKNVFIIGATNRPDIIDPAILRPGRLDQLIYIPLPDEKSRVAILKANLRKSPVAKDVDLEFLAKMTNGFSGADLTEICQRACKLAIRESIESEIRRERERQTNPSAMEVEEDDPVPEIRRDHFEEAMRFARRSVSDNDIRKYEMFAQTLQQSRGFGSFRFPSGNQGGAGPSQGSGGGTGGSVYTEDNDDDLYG

SMILES | EC50 (adult S. mansoni worms; [2]) | effect on adult worms (adult S. mansoni worms; 10 μM) | IC50 [1] | activity on the enzyme [1] | IC50 (H. sapiens p97 (P55072)) | Fold Selectivity [1] | further results
O=C(C#CC1CC1)Nc1ccc2oc(-c3ccccn3)nc2c1 [Compound 732, 3-cyclopropyl-N-(2-(pyridin-2-yl)benzo[d]oxazol-5-yl)propiolamide] | 1300 nM | still active on worms | > 100000 nM | abolishing activity on the enzyme | – | – | –
COc1ccc(C#CC(=O)Nc2ccc3oc(-c4ccccn4)nc3c2)cc1 [Compound 734, 3-(4-methoxyphenyl)-N-(2-(pyridin-2-yl)benzo[d]oxazol-5-yl)propiolamide] | 7000 nM | decreased activity on the worms | 48000 ± 2600 nM | decreased potency on the enzyme | 83000 ± 6500 nM | 1.7 | –
O=C(C#Cc1cccc(Cl)c1)Nc1ccc2oc(-c3ccccn3)nc2c1 [Compound 735, 3-(3-chlorophenyl)-N-(2-(pyridin-2-yl)benzo[d]oxazol-5-yl)propiolamide] | 4200 nM | still active on worms | 11000 ± 470 nM | abolishing activity on the enzyme | 7300 ± 660 nM | 0.70 | –
O=C(C#Cc1ccc(Cl)cc1)Nc1ccc2oc(-c3ccccn3)nc2c1 [Compound 736, 3-(4-chlorophenyl)-N-(2-(pyridin-2-yl)benzo[d]oxazol-5-yl)propiolamide] | 12000 nM | decreased activity on the worms | 5900 ± 1300 nM | decreased potency on the enzyme | 6700 ± 55 nM | 1.1 | –
O=C(C#Cc1ccccn1)Nc1ccc2oc(-c3ccccn3)nc2c1 [Compound 737, 3-(pyridin-2-yl)-N-(2-(pyridin-2-yl)benzo[d]oxazol-5-yl)propiolamide] | 22000 nM | decreased activity on the worms | 3000 ± 410 nM | decreased potency on the enzyme | 13000 ± 2200 nM | 4.3 | –
O=C(C#Cc1cccnc1)Nc1ccc2oc(-c3ccccn3)nc2c1 [Compound 738, N-(2-(pyridin-2-yl)benzo[d]oxazol-5-yl)-3-(pyridin-3-yl)propiolamide] | 3500 nM | death of the parasites | 420 ± 57 nM | – | 780 ± 140 nM | 1.9 | time to detachment of adult worms in culture (adult S. mansoni worms; 10 μM): ≤ 24 h
Cc1cccnc1-c1nc2cc(NC(=O)C#Cc3ccncc3)ccc2o1 [Compound 804, N-(2-(3-methylpyridin-2-yl)benzo[d]oxazol-5-yl)-3-(pyridin-4-yl)propiolamide] | 760 nM | – | 190 ± 63 nM | – | 140 ± 62 nM | 0.70 | GI50 (HepG2 cells; HepG2, 72 h): 930 nM; IC50 (HepG2 cells; HepG2, 72 h): 1200 nM; GI50 (HepG2 cells; HepG2, read-out: HepG2 GI50): 930 nM; IC50 (HepG2 cells; HepG2, read-out: HepG2 IC50): 1200 nM
Cc1ccnc(-c2nc3cc(NC(=O)C#Cc4ccncc4)ccc3o2)c1 [Compound 805, N-(2-(4-methylpyridin-2-yl)benzo[d]oxazol-5-yl)-3-(pyridin-4-yl)propiolamide] | 2000 nM | – | 170 ± 92 nM | – | 140 ± 78 nM | 0.80 | GI50 (HepG2 cells; HepG2, 72 h): 1200 nM; IC50 (HepG2 cells; HepG2, 72 h): 1600 nM; GI50 (HepG2 cells; HepG2, read-out: HepG2 GI50): 1200 nM; IC50 (HepG2 cells; HepG2, read-out: HepG2 IC50): 1600 nM
Cc1ccc(-c2nc3cc(NC(=O)C#Cc4ccncc4)ccc3o2)nc1 [Compound 806, N-(2-(5-methylpyridin-2-yl)benzo[d]oxazol-5-yl)-3-(pyridin-4-yl)propiolamide] | 3200 nM | – | 470 ± 170 nM | – | 510 ± 160 nM | 1.1 | GI50 (HepG2 cells; HepG2, 72 h): 1500 nM; IC50 (HepG2 cells; HepG2, 72 h): 1800 nM; GI50 (HepG2 cells; HepG2, read-out: HepG2 GI50): 1500 nM; IC50 (HepG2 cells; HepG2, read-out: HepG2 IC50): 1800 nM
Cc1cccc(-c2nc3cc(NC(=O)C#Cc4ccncc4)ccc3o2)n1 [Compound 807, N-(2-(6-methylpyridin-2-yl)benzo[d]oxazol-5-yl)-3-(pyridin-4-yl)propiolamide] | 1800 nM | – | 670 ± 170 nM | – | 490 ± 57 nM | 0.70 | GI50 (HepG2 cells; HepG2, 72 h): 1100 nM; IC50 (HepG2 cells; HepG2, 72 h): 1400 nM; GI50 (HepG2 cells; HepG2, read-out: HepG2 GI50): 1100 nM; IC50 (HepG2 cells; HepG2, read-out: HepG2 IC50): 1400 nM
Nc1nc(=O)n(-c2ccccc2Cl)c2nc(C(F)(F)F)ccc12 [IDE397, reference compound] | – | – | – | – | – | – | EC50 (adult S. mansoni worms): > 50000 nM
O=C(NOC[C@H](O)CO)c1ccc(F)c(F)c1Nc1ccc(I)cc1F [Mirdametinib, reference compound] | – | – | – | – | – | – | EC50 (adult S. mansoni worms; [3]): > 50000 nM
CN(C)CCc1nnc2cc(-c3ccccc3)c3cc(Cl)ccc3n12 [PF-9366, reference compound] | – | – | – | – | – | – | EC50 (adult S. mansoni worms): 43000 nM
CC(=O)Nc1cccc(-n2c(=O)n(C3CC3)c(=O)c3c(Nc4ccc(I)cc4F)n(C)c(=O)c(C)c32)c1 [Trametinib, reference compound] | – | – | – | – | – | – | EC50 (adult S. mansoni worms; [3]): 650 nM
O=C(N[C@@H](C1CC1)C(F)(F)F)c1cc(-c2cnn3cc(-c4ccc(F)cc4)cnc23)cs1 [ULK-101, reference compound] | – | – | – | – | – | – | time in which inhibitor killed parasites (adult S. mansoni worms; initial concentration of 10 μM): ≤ 24 h
